# Assay results: PubChem BioAssay AID248 (DTP/NCI, 2004)
# Where “and” joins values, the source holds several entries; their conditions need not be identical. Equal entries are not always repeated. Toxic doses and inconclusive results are not listed.
# System: L1210 leukemia ip in BDF1 mice, survival T/C
# Assay: NCI In Vivo Anticancer Drug Screen. Data for tumor model L1210 Leukemia (intraperitoneal) in B6D2F1 (BDF1) mice
# Settings: endpoint: mean survival time, higher = longer survival
# How it was run: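 Antitumor effect is assessed in tumor-bearing animals. Survival in the compound arm is compared with a vehicle-dosed control arm and expressed as their quotient.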
compound,measurement,setting,value
O=c1cnn(C2OC(CO)C(O)C2O)c(=O)[nH]1 (stereo not drawn),T/C,"dose: 12.5 mg/kg/injection, schedule: Q#A X Z (ip), vehicle: saline",160 % of control
same,T/C,"dose: 25.0 mg/kg/injection, schedule: Q01DX Z (im), vehicle: saline",150 % of control
same,T/C,"dose: 25.0 mg/kg/injection, schedule: Q01DX Z (ip), vehicle: methylcellulose (MC)",120 % of control
same,T/C,"dose: 25.0 mg/kg/injection, schedule: Q01DX Z (ip), vehicle: saline",156 % of control
same,T/C,"dose: 25.0 mg/kg/injection, schedule: Q#A X Z (ip), vehicle: saline",156 % of control
same,T/C,"dose: 32.0 mg/kg/injection, schedule: Q01DX009 (oral), vehicle: saline",151 % of control
same,T/C,"dose: 50.0 mg/kg/injection, schedule: Q01DX010 (ip), vehicle: saline",120 % of control
same,T/C,"dose: 50.0 mg/kg/injection, schedule: Q01DX Z (im), vehicle: saline",156 % of control
same,T/C,"dose: 50.0 mg/kg/injection, schedule: Q01DX Z (ip), vehicle: methylcellulose (MC)",120 % of control
same,T/C,"dose: 50.0 mg/kg/injection, schedule: Q01DX Z (ip), vehicle: saline",159 % of control
same,T/C,"dose: 50.0 mg/kg/injection, schedule: Q01DX Z (oral), vehicle: other",158 % of control
same,T/C,"dose: 50.0 mg/kg/injection, schedule: Q#A X Z (ip), vehicle: saline",164 % of control
same,T/C,"dose: 75.0 mg/kg/injection, schedule: Q01DX005 (ip), vehicle: saline",112 % of control
same,T/C,"dose: 88.0 mg/kg/injection, schedule: Q01DX Z (ip), vehicle: methylcellulose (MC)",122 % of control
same,T/C,"dose: 100.0 mg/kg/injection, schedule: Q01DX010 (ip), vehicle: saline",123 % of control
same,T/C,"dose: 100.0 mg/kg/injection, schedule: Q01DX Z (ip), vehicle: methylcellulose (MC)",116 % of control
same,T/C,"dose: 100.0 mg/kg/injection, schedule: Q01DX Z (oral), vehicle: saline",151 % of control
same,T/C,"dose: 100.0 mg/kg/injection, schedule: Q#A X Z (ip), vehicle: saline",176 % of control
same,T/C,"dose: 128.0 mg/kg/injection, schedule: Q03HX016 (oral), vehicle: saline",116 % of control
same,T/C,"dose: 132.0 mg/kg/injection, schedule: Q01DX Z (ip), vehicle: methylcellulose (MC)",117 % of control
same,T/C,"dose: 150.0 mg/kg/injection, schedule: Q01DX005 (ip), vehicle: saline",115 % of control
same,T/C,"dose: 150.0 mg/kg/injection, schedule: Q01DX Z (oral), vehicle: saline",172 % of control
same,T/C,"dose: 150.0 mg/kg/injection, schedule: Q## X003 (ip), vehicle: saline",105 % of control
same,T/C,"dose: 152.0 mg/kg/injection, schedule: Q## X024 (ip), vehicle: saline",123 % of control
same,T/C,"dose: 180.0 mg/kg/injection, schedule: Q01DX009 (ip), vehicle: saline",120 % of control
same,T/C,"dose: 200.0 mg/kg/injection, schedule: Q#A X Z (ip), vehicle: saline",176 % of control
same,T/C,"dose: 256.0 mg/kg/injection, schedule: Q03HX016 (ip), vehicle: saline",153 % of control
same,T/C,"dose: 300.0 mg/kg/injection, schedule: Q01DX005 (ip), vehicle: saline",118 % of control
same,T/C,"dose: 300.0 mg/kg/injection, schedule: Q01DX009 (oral), vehicle: saline",123 % of control
same,T/C,"dose: 300.0 mg/kg/injection, schedule: Q01DX Z (oral), vehicle: saline",159 % of control
same,T/C,"dose: 300.0 mg/kg/injection, schedule: Q03DX Z (ip), vehicle: other",119 % of control
same,T/C,"dose: 300.0 mg/kg/injection, schedule: Q## X003 (ip), vehicle: saline",106 % of control
same,T/C,"dose: 304.0 mg/kg/injection, schedule: Q## X024 (ip), vehicle: saline",151 % of control
same,T/C,"dose: 350.0 mg/kg/injection, schedule: Q01DX001 (ip), vehicle: saline",109 % of control
same,T/C,"dose: 350.0 mg/kg/injection, schedule: Q07DX Z (ip), vehicle: saline",109 % of control
same,T/C,"dose: 400.0 mg/kg/injection, schedule: Q01DX Z (oral), vehicle: other",191 % of control
same,T/C,"dose: 400.0 mg/kg/injection, schedule: Q#A X Z (ip), vehicle: saline",158 % of control
same,T/C,"dose: 512.0 mg/kg/injection, schedule: Q03HX016 (ip), vehicle: saline",162 % of control
same,T/C,"dose: 512.0 mg/kg/injection, schedule: Q03HX016 (oral), vehicle: saline",158 % of control
same,T/C,"dose: 600.0 mg/kg/injection, schedule: Q01DX001 (ip), vehicle: saline",101 % of control
same,T/C,"dose: 600.0 mg/kg/injection, schedule: Q01DX001 (oral), vehicle: saline",109 % of control
same,T/C,"dose: 600.0 mg/kg/injection, schedule: Q01DX001 (sc), vehicle: saline",106 % of control
same,T/C,"dose: 600.0 mg/kg/injection, schedule: Q01DX005 (ip), vehicle: saline",121 % of control
same,T/C,"dose: 600.0 mg/kg/injection, schedule: Q01DX009 (oral), vehicle: saline",118 % of control
same,T/C,"dose: 600.0 mg/kg/injection, schedule: Q01DX Z (oral), vehicle: saline",154 % of control
same,T/C,"dose: 600.0 mg/kg/injection, schedule: Q## X002 (ip), vehicle: saline",98 % of control
same,T/C,"dose: 600.0 mg/kg/injection, schedule: Q## X003 (ip), vehicle: saline",107 % of control
same,T/C,"dose: 600.0 mg/kg/injection, schedule: Q## X008 (ip), vehicle: saline",119 % of control
same,T/C,"dose: 600.0 mg/kg/injection, schedule: Q## X016 (ip), vehicle: saline",117 % of control
same,T/C,"dose: 700.0 mg/kg/injection, schedule: Q01DX001 (ip), vehicle: saline",113 % of control and 116 % of control
same,T/C,"dose: 700.0 mg/kg/injection, schedule: Q07DX Z (ip), vehicle: other",111 % of control
same,T/C,"dose: 700.0 mg/kg/injection, schedule: Q07DX Z (ip), vehicle: saline",113 % of control
same,T/C,"dose: 800.0 mg/kg/injection, schedule: Q01DX009 (ip), vehicle: saline",110 % of control
same,T/C,"dose: 800.0 mg/kg/injection, schedule: Q01DX Z (im), vehicle: saline",151 % of control
same,T/C,"dose: 800.0 mg/kg/injection, schedule: Q## X000 (other), vehicle: other",107 % of control
same,T/C,"dose: 800.0 mg/kg/injection, schedule: Q#A X Z (ip), vehicle: saline",101 % of control
same,T/C,"dose: 1024.0 mg/kg/injection, schedule: Q03HX016 (ip), vehicle: saline",176 % of control
same,T/C,"dose: 1024.0 mg/kg/injection, schedule: Q03HX016 (oral), vehicle: saline",161 % of control
same,T/C,"dose: 1200.0 mg/kg/injection, schedule: Q01DX001 (oral), vehicle: saline",112 % of control
same,T/C,"dose: 1200.0 mg/kg/injection, schedule: Q01DX001 (sc), vehicle: saline",110 % of control
same,T/C,"dose: 1200.0 mg/kg/injection, schedule: Q01DX009 (ip), vehicle: saline",98 % of control
same,T/C,"dose: 1200.0 mg/kg/injection, schedule: Q01DX009 (oral), vehicle: saline",100 % of control
same,T/C,"dose: 1200.0 mg/kg/injection, schedule: Q01DX009 (sc), vehicle: saline",94 % of control
same,T/C,"dose: 1200.0 mg/kg/injection, schedule: Q01DX Z (oral), vehicle: saline",104 % of control
same,T/C,"dose: 1200.0 mg/kg/injection, schedule: Q03DX Z (ip), vehicle: other",158 % of control
same,T/C,"dose: 1200.0 mg/kg/injection, schedule: Q## X002 (ip), vehicle: saline",110 % of control
same,T/C,"dose: 1200.0 mg/kg/injection, schedule: Q## X003 (ip), vehicle: saline",114 % of control
same,T/C,"dose: 1200.0 mg/kg/injection, schedule: Q## X008 (ip), vehicle: saline",123 % of control
same,T/C,"dose: 1200.0 mg/kg/injection, schedule: Q## X024 (ip), vehicle: saline",155 % of control
same,T/C,"dose: 1400.0 mg/kg/injection, schedule: Q01DX001 (ip), vehicle: saline",115 % of control and 116 % of control
same,T/C,"dose: 1400.0 mg/kg/injection, schedule: Q07DX Z (ip), vehicle: other",117 % of control
same,T/C,"dose: 1600.0 mg/kg/injection, schedule: Q01DX009 (ip), vehicle: saline",92 % of control
same,T/C,"dose: 1600.0 mg/kg/injection, schedule: Q01DX Z (oral), vehicle: other",96 % of control
same,T/C,"dose: 1600.0 mg/kg/injection, schedule: Q01DX Z (oral), vehicle: saline",98 % of control
same,T/C,"dose: 2048.0 mg/kg/injection, schedule: Q03HX016 (ip), vehicle: saline",174 % of control
same,T/C,"dose: 2400.0 mg/kg/injection, schedule: Q01DX001 (oral), vehicle: saline",117 % of control
same,T/C,"dose: 2400.0 mg/kg/injection, schedule: Q01DX001 (sc), vehicle: saline",115 % of control
same,T/C,"dose: 2400.0 mg/kg/injection, schedule: Q03DX Z (ip), vehicle: other",151 % of control
same,T/C,"dose: 2400.0 mg/kg/injection, schedule: Q## X002 (ip), vehicle: saline",107 % of control
same,T/C,"dose: 2400.0 mg/kg/injection, schedule: Q## X024 (ip), vehicle: saline",153 % of control
same,T/C,"dose: 2800.0 mg/kg/injection, schedule: Q01DX001 (ip), vehicle: saline",121 % of control
same,T/C,"dose: 2800.0 mg/kg/injection, schedule: Q07DX Z (ip), vehicle: other",124 % of control
same,T/C,"dose: 3200.0 mg/kg/injection, schedule: Q01DX Z (im), vehicle: saline",87 % of control
